Measured values published in patent US9358305B2, “Targeted carriers for drug delivery across the gastrointestinal epithelium” (University of Maryland, College Park, priority 2009, dated 2016).
Ends that are not written are not given here.

Columns and labels:
ICAM-1 on HUVEC = test: Leukocyte transmigration across TNF-activated HUVEC monolayer in transwell; type: cell-based, human; settings: compared to albumin, scrambled peptide and LB2 controls
Procedure: Human endothelial cells (human umbilical vein endothelial cells (HUVECs)) were grown until formation of a continuous confluent monolayer in a transwell filter located between upper and lower chambers. The cells were then treated with tumor necrosis factor alpha to mimic inflammatory activation of endothelial cells and SDF1a was added to the lower chamber to generate a gradient to attract white blood cells, as during inflammation. Lymphocytes isolated from human peripheral blood were activated with interleukin 2 and added to the upper chamber above endothelial cells in the absence (control) or presence of ICAM-1-targeting peptides A1, B7, B8, B9, B10, or D6. Albumin or a peptide of scrambled sequence were used as negative controls which should not block inflammatory transmigration of leukocytes across endothelial cells. The anti-ICAM antibody LB2, which is known to block leukocyte adhesion to ICAM-1, was used as a positive control which should block such transmigration.
Leukocytes which transmigrated to the lower chamber below endothelial cells were counted to assess their transmigration. FIG. 9 provides a graph of the resulting leukocyte transmigration as a percentage of the control. The peptides annotated with an asterisk in FIG. 9 indicate that the peptide was effective in statistically significant blockage of leukocyte transmigration across endothelial cells.

[1] = biological target: T1, ICAM-1 on human endothelial cells (Homo sapiens, UniProt P05362); test: Competition of binding of anti-ICAM nanocarriers to human endothelial cells by synthetic peptides; type: cell-based
T1 construct: endogenous in cells
T1 sequence (P05362 28-532): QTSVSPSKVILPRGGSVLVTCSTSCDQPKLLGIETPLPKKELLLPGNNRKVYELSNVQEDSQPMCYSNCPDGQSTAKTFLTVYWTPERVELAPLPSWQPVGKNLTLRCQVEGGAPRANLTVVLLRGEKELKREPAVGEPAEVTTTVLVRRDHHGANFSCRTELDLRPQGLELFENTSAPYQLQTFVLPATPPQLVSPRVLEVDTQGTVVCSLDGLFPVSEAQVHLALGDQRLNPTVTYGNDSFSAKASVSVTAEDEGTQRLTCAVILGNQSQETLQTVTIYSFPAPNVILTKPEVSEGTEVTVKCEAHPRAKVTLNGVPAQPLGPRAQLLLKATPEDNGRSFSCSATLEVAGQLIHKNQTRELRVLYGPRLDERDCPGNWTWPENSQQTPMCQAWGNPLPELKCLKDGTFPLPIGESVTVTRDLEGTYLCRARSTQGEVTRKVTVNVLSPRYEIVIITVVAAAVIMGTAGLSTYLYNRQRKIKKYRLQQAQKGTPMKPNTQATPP
Excerpt: (§1) (A) ELISA measurement of the binding of 7-mer peptide expressing phage library to immobilized recombinant ICAM-1 (consisting of the two most membrane-distal Ig domains—1 and 2—of mouse ICAM-1 fused to human Fc or hFc), versus their binding to control hFc. (B) Relative specificity and (C) relative affinity of ICAM-1-targeting peptide phages, determined by ELISA from the experiment in (A). (D) Relative binding of phages expressing 7-mer peptides to native ICAM-1 expressed on the surface of HV5 mouse endothelial cells, either control or activated with TNFalpha to mimic a disease phenotype. Binding was determined by microscopy using a fluorescently-labeled antibody to the phage capsid. The line in the graph indicates the level of binding of A1 phage to 293 cells, which are voided of ICAM-1-expression. (E, F) Endocytosis (1 h, 37° C.) of phages expressing 7-mer peptides by control mouse endothelial cells (E) or mouse endothelial cells incubated in the presence of 3 mM amiloride (F) was estimated by microscopy after staining surface-located phages with a Texas red-labeled antibody to the viral capsid, following by cell permeabilization and staining of all (surface and internalized) phages using a FITC-labeled antibody to the viral capsid. (G) Binding of FITC-labeled anti-ICAM polystyrene nanocarriers to human endothelial cells was evaluated by fluorescence microscopy after incubation with cells in the absence (100% level) or presence of anti-ICAM antibody, ICAM-1-targeting synthetic peptides, or peptides with their scramble sequence (e.g., A1sc).

HUVEC = test: Lysosomal transport of peptide-coated carriers in HUVEC; type: cell-based, human; settings: for Binding, internalization and lysosomal transport of carriers: 37° C., co-localization with dextran-labeled lysosomes, carriers coated with the peptide
Procedure: (§2) (A) The peptide γ3 was absorbed on the surface of 100 nm FITC-labeled polystyrene carriers and the resulting products were incubated for 15 min on nitrocellulose-immobilized albumin vs human or mouse ICAM-1 chimeras containing ICAM-1-Ig domains 1 and 2 fused to human Fc sequence. The membranes were washed and analyzed by fluorescence microscopy to quantify the number of carriers bound per area. Data are expressed relative to non-specific binding of γ3 carriers to albumin controls (dotted line). A comparison to binding of anti-ICAM carriers is provided (dashed line). (B) Binding of FITC-labeled polystyrene carriers coated by absorption with the peptide γ3 and recombinant acid sphingomyelinase (ASM, a therapeutic enzyme) to activated HUVEC (bars) vs ICAM-1-negative 293 cells (dotted line) was quantified by fluorescence microscopy after 1 h incubation at 37° C., in the absence or presence of excess γ3, anti-ICAM, γ3 scramble peptide, or mannose 6 phosphate (M6P). Data is shown relative to HUVEC binding of γ3/ASM carriers (134±11 particles/cell). (C) HUVEC lysosomes were labeled for 2 h with Texas-red dextran at 37° C. Cells were then incubated for 30 min at 37° C. with FITC-labeled γ3/ASM carriers, non-bound carriers were washed, and incubation was continued up to 1, 2, or 3 h. Co-localization of FITC carriers with Texas-red dextran-lysosomes was quantified by fluorescence microscopy. (D) Comparison of lysosomal transport of 100 nm FITC-labeled polystyrene carriers coated with either ICAM-1-targeting peptide γ3 vs its derivatives 2γ3 and 3γ3. (E) Activated HUVEC were incubated for 30 min at 37° C. in the presence of FITC-labeled 2γ3 polystyrene carriers after 15 min pre-treatment with 3 mM amiloride to block ICAM-1-mediated endocytosis, or 0.1 μM PMA to activate PKC and promote ICAM-1-mediated endocytosis. Co-localization of FITC 2γ3 carriers with Texas red dextran-labeled lysosomes was assessed by microscopy 3 h post-internalization. Mean±SEM; n=2 assays. **p<0.005, ***p<0.001, by student's t test.

Caco-2 monolayers = test: Transport of 125I-labelled carriers across Caco-2 monolayers on permeable inserts; type: in vitro ADME, human
mouse endothelial cells = test: Endocytosis of peptide phages by mouse endothelial cells; type: cell-based; settings: for Internalization of phage viruses by endothelial cells: phages expressing 5 copies of the peptide, 37° C., 1 h
Excerpt: as §1

Caco-2 cells = test: Endocytosis of anti-ICAM carriers by Caco-2 cells; type: cell-based, human; settings: TNF-α-treated Caco-2, 1 h, 37° C.
Procedure: Furthermore the ability of anti-ICAM carriers to be endocytosed by Caco-2 cells was examined. FITC-labeled anti-ICAM carriers were first incubated with cells for 30 min to allow binding, then non-bound carriers were washed and cells were incubated for varying times to allow carrier uptake. After cell fixation, surface-bound carriers were stained with Texas Red secondary antibody. […] Data are shown as means±S.E.M. (n≧20). […] Internalization was highly efficient: approximately 90% of the carriers bound to cells were internalized, which represents ˜60 carriers per cell.
The mechanism of uptake for Caco-2 cells treated with amiloride, a known inhibitor of CAM-mediated endocytosis (Muro et al., 2003), was examined. TNF-α-treated Caco-2 cells were incubated with FITC-labeled anti-ICAM carriers in the presence or absence of amiloride (1 h, 37° C.), and surface-bound carriers were stained with TxR goat anti-mouse. […] Upper panels of FIG. 14A show total carriers associated to cells, whereas lower panels show the fraction of surface-bound, non-internalized carriers. (Magnification bar=10 μm.) The fluorescence microscopy images were analyzed for the ratio of internalized carriers to surface-bound carriers, expressed as % internalization and normalized to the control. (FIG. 14B; Data are shown as means±S.E.M. (n≧20). *, p<0.001 by Student's t test.)

[2] = biological target: T2, ICAM-1 in the vascular endothelium (Mus musculus, UniProt P13597); test: Lodging of fibrin microemboli in the vasculature of mice; type: in vivo
T2 construct: from tissue
T2 sequence (P13597 28-537): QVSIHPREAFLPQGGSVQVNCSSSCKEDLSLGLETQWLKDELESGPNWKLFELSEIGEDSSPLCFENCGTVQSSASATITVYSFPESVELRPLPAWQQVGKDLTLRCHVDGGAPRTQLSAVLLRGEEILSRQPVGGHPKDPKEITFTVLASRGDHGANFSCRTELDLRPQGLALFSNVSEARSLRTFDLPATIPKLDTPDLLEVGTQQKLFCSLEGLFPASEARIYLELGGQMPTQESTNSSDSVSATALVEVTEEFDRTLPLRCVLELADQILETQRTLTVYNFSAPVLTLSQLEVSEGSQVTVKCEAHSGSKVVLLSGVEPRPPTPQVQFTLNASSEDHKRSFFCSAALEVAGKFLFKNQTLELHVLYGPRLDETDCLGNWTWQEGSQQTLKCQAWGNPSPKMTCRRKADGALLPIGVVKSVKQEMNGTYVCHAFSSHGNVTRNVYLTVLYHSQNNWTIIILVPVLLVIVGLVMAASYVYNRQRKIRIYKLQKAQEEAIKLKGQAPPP
Procedure: C57Bl/6 mice were first injected intravenously with γ3 to block ICAM-1 in the vascular endothelium in organs. Alternatively, injections of saline or anti-ICAM were used as controls. Fifteen minutes later the mice were injected with fibrin clots (microemboli around 3-5 micrometer) generated in the lab by established procedures.
Following microemboli administration, the microemboli amounts were measured in a gamma counter and calculated as percent of injected dose in circulation or localization ratio (the percent injected dose/gram in an organ divided by percent injected dose/gram in blood). FIG. 10(A) is a graphical illustration of the amount of microemboli in circulation in blood, as evaluated at 1 min after injection and FIG. 10(B) is a graphical illustration of the amount of microemboli lodging in the vasculature of the kidneys and spleen at 15 min after injection.

[3] = biological target: T3, native ICAM-1 expressed by activated HUVEC (Homo sapiens, UniProt P05362); test: Binding of γ3/ASM carriers to activated HUVEC, with or without excess competitor; type: cell-based; settings: 1 h, 37° C.
T3 construct: endogenous in cells
T3 sequence (P05362 28-532): as the sequence (P05362 28-532) above
Procedure: as §2, with “Cells were then incubated for 30 min at 37° C. with FITC-labeled γ3/ASM carriers, non-bound carriers were washed, and incubation was continued up to 1, 2, or 3 h.” left out, “(D) Comparison of lysosomal transport of 100 nm FITC-labeled polystyrene carriers coated with either ICAM-1-targeting peptide γ3 vs its derivatives 2γ3 and 3γ3. (E) Activated HUVEC were incubated for 30 min at 37° C. in the presence of FITC-labeled 2γ3 polystyrene carriers after 15 min pre-treatment with 3 mM amiloride to block ICAM-1-mediated endocytosis, or 0.1 μM PMA to activate PKC and promote ICAM-1-mediated endocytosis.” left out, “Mean±SEM; n=2 assays. **p<0.005, ***p<0.001, by student's t test.” left out

In the case of “GCKLCAQ (phage display-derived peptide D6) [also tested as phage clone]”, the “Leukocyte transmigration across endothelial cells” value (ICAM-1 on HUVEC) is reported as “inhibit leukocyte transmigration”.
In the case of “FSPHSRT (phage display-derived peptide B9) [also tested as phage clone]”, the “Inhibition of binding of anti-ICAM nanocarriers to human endothelial cells” value [1] is reported as roughly 80 % inhibition and the “Leukocyte transmigration across endothelial cells” value (ICAM-1 on HUVEC) is reported as “inhibit leukocyte transmigration”.
With “NNQKLVNIKEKVAQIEA (fibrinogen-derived 3-gamma-3) [3γ3]” the “Binding, internalization and lysosomal transport of carriers” value (HUVEC) was “similar”.
For `N=C(N)NC(=O)c1nc(Cl)c(N)nc1N` [amiloride, reference compound], the “Reduction of transport of 125I-anti-ICAM carriers by amiloride” value (Caco-2 monolayers; 3 h) was “about 50%”, the “Effect of modulator on endocytic transport of peptide carriers” value (HUVEC; 3 mM amiloride or 0.1 μM PMA pre-treatment) was “inhibited” and the inhibition at 3000 µM (mouse endothelial cells; Mus musculus, Endothelial cell, phages A1, B7, B9, D6, 3 mM amiloride, read-out: Inhibition of phage internalization by amiloride) was 41 to 59%. The “Uptake of anti-ICAM carriers in presence of amiloride” value (Caco-2 cells) was 20 % of the control value.
For “YQATPLP (phage display-derived peptide B7) [also tested as phage clone]”, the “Leukocyte transmigration across endothelial cells” value (ICAM-1 on HUVEC) was “inhibit leukocyte transmigration”.
In the case of “YPFLPTA (phage display-derived peptide B10) [also tested as phage clone]”, the “Leukocyte transmigration across endothelial cells” value (ICAM-1 on HUVEC) is reported as “inhibit leukocyte transmigration” and the “Internalization of phage viruses by endothelial cells” value (mouse endothelial cells) is reported as “not”.
“^125I-albumin: radiolabelled bovine serum albumin, standard for passive transport” showed a Papp A→B (Caco-2 monolayers; Caco-2) of 0.03 ± 20000 ×10⁻⁶ cm/s.
For “NNQKIVNLKEKVAQLEA (fibrinogen-derived gamma-3) [γ3]”, the “Fibrin microemboli in circulation” value ([2]; 1 min after microemboli injection) was “remain in circulation”, the “Microemboli lodging in organs” value ([2]; kidneys and spleen, 15 min after injection) was “attenuating microemboli lodging in organs” and the “Effect of excess free competitor in the media on targeting of γ3/ASM carriers to endothelial cells” value [3] was “suppressed”.
GSLLSAA [B8, GSLLSAA] was tested, and the “Inhibition of binding of anti-ICAM nanocarriers to human endothelial cells” value [1] was “at some extent”, the “Leukocyte transmigration across endothelial cells” value (ICAM-1 on HUVEC) was “inhibit leukocyte transmigration” and the “Internalization of phage viruses by endothelial cells” value (mouse endothelial cells) was “not”.
For “NNQKIVNIKEKVAQIEA (fibrinogen-derived 2-gamma-3) [2γ3]”, the “Binding, internalization and lysosomal transport of carriers” value (HUVEC) was “similar”.
With `O=C[C@@H](O)[C@@H](O)[C@H](O)[C@H](O)COP(=O)(O)O` [mannose-6-phosphate, reference compound] the “Effect of excess free competitor in the media on targeting of γ3/ASM carriers to endothelial cells” value [3] was “did not compete”.
